Source: patent US20160303095A1, “METHODS OF TREATING HEPATITIS B VIRUS” (Gilead Sciences, Inc., priority 2015, published 2016)

Key:
KDM5A = KDM5A (Homo sapiens, UniProt P29375); experiment: Biochemical KDM inhibition assay (LANCE), KDM5A; conditions: read-out: Biochemical IC50 KDM 5A
Description: Representative compounds were characterized for their inhibition of KDM5 using biotinylated histone substrates. Inhibition was measured in vitro (CEREP Poitier, Le Bois l'Evêque, France) following experimental conditions described in Table 2. Briefly, the test compound, reference compound or water (control) was mixed with about 2-20 ng of recombinant, Human enzymes expressed in Sf9 cells in a buffer containing 45 mM Hepes/Tris (pH 7), 5 μM FAS, 100 μM ascorbic acid, 10 μM 2-oxoglutarate, 0.01% Tween 20 and 0.01% BSA. Thereafter, the reaction was initiated by adding the biotin-labeled substrate, and the mixture was incubated for 10-30 min at room temperature. For basal control measurements, the enzyme was omitted from the reaction mixture. Following incubation the reaction was stopped by adding 1 mM EDTA. After 5 min, the anti-methyl histone antibody labeled with europium chelate and the Ulight streptavidine (Perkin Elmer Waltham, Mass.) were added. After 60 min more, the fluorescence transfer was measured at λex=320 nm and λem=620 and λem=665 nm using a microplate reader (Envision, Perkin Elmer) (LANCE). The enzyme activity was determined by dividing the signal measured at λem=665 nm by that measured at 620 nm (ratio).

KDM4A = molecular target: T1, KDM4A (Homo sapiens, UniProt O75164); experiment: Biochemical KDM inhibition assay (LANCE), KDM4A; conditions: read-out: Biochemical IC50 KDM 4A
T1 construct: host or cells: Sf9 cells
T1 sequence (O75164 1-1064): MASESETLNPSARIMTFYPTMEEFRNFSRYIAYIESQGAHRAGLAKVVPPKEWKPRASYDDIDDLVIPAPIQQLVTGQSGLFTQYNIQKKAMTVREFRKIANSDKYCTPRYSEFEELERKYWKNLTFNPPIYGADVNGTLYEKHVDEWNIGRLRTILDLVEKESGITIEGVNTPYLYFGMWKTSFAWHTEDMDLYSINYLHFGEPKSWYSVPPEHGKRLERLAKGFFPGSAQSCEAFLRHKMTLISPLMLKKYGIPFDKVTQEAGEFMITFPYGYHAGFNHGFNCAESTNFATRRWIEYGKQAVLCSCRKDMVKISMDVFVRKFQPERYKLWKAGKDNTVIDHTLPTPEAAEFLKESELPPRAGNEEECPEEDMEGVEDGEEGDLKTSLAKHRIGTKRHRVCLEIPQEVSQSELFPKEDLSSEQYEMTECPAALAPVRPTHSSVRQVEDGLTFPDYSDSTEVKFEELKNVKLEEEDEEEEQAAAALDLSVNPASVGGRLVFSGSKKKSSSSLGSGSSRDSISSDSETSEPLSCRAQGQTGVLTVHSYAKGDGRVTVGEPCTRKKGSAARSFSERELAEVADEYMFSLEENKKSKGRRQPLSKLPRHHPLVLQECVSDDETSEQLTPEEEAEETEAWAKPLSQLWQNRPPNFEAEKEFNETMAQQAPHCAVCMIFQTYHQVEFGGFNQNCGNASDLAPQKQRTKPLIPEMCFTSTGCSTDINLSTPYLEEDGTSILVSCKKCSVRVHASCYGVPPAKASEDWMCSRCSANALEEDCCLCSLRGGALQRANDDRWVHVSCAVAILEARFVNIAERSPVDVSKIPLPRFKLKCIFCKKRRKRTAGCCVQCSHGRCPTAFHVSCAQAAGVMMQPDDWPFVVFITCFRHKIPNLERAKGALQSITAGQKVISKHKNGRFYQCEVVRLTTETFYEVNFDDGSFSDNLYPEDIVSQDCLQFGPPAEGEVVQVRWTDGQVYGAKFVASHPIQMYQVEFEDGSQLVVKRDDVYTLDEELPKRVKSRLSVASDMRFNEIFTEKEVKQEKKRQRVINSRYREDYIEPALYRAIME

KDM4C = molecular target: T2, KDM4C (Homo sapiens, UniProt Q9H3R0); experiment: Biochemical KDM inhibition assay (LANCE), KDM4C; conditions: read-out: Biochemical IC50 KDM 4C
T2 sequence (Q9H3R0 1-1056): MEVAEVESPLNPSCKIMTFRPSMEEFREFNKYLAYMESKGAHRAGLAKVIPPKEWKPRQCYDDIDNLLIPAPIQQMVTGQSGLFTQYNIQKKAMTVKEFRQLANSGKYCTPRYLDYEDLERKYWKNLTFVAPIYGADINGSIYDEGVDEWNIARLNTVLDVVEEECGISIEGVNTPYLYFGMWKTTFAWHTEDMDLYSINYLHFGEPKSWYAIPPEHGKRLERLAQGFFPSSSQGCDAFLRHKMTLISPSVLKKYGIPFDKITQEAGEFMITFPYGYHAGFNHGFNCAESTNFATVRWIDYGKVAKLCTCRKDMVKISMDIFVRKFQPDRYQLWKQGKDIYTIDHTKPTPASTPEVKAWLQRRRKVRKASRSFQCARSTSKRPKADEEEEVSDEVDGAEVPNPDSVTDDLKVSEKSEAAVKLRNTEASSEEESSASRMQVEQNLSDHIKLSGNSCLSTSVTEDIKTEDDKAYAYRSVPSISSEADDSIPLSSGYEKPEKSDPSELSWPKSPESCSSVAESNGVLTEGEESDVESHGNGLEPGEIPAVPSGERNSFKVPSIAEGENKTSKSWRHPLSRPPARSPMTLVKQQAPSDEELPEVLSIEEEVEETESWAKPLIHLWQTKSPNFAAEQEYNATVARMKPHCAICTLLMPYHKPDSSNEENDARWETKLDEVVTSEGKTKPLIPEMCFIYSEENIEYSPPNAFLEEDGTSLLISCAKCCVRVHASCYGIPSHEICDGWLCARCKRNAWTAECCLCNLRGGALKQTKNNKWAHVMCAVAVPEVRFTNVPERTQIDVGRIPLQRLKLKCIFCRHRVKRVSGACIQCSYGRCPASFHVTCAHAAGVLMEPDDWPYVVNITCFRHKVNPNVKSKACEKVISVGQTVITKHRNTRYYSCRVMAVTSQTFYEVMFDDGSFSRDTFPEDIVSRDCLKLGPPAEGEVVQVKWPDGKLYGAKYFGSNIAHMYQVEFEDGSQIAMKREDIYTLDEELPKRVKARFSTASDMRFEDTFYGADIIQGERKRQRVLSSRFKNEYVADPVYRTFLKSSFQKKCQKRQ

Chain of KDM5A (P29375 whole entry): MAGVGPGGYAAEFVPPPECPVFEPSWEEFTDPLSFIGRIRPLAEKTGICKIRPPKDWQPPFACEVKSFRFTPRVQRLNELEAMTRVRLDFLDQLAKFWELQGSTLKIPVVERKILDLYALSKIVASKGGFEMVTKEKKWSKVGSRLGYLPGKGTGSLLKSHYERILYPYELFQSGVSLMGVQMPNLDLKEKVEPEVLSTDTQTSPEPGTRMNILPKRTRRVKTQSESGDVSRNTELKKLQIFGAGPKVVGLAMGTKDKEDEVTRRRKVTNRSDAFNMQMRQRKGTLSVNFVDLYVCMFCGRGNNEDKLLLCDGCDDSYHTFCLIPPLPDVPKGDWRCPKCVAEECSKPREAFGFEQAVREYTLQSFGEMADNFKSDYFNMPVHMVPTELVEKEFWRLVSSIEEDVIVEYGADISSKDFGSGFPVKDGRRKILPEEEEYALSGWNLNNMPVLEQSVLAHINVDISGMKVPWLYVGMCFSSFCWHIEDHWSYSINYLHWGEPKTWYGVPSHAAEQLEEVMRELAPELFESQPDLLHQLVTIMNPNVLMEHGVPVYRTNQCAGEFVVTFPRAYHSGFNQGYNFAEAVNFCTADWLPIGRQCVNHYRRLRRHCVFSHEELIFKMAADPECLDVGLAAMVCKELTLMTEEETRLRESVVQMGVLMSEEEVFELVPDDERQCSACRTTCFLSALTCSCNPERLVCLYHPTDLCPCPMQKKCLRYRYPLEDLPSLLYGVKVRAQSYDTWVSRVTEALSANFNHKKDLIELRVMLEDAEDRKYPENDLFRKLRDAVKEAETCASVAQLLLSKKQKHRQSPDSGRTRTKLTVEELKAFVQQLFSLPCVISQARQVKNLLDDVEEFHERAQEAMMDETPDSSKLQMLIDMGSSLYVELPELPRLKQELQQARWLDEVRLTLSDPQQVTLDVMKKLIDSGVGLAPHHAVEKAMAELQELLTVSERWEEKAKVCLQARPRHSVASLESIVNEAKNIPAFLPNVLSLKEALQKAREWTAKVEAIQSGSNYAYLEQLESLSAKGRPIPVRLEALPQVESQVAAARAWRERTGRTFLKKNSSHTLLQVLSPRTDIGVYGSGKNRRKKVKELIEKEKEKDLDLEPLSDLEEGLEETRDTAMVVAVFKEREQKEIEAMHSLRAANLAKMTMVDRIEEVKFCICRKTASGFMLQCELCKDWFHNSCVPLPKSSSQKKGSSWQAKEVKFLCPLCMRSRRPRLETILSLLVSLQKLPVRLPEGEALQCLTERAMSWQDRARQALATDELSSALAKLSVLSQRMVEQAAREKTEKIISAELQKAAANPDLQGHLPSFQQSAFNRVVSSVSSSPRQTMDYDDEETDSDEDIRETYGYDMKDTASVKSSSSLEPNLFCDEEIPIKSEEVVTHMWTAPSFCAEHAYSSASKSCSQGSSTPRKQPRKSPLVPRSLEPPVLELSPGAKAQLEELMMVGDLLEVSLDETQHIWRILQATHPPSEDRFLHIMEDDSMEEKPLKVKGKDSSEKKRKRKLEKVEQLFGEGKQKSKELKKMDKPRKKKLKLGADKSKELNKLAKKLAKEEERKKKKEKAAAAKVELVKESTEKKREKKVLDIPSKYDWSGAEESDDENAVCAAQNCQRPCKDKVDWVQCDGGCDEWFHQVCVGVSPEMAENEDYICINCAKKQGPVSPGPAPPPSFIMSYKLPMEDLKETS

Structure (SMILES) | IC50 (KDM5A) | IC50 (KDM4A) | IC50 (KDM4C)
Nc1c(C(=O)O)ccnc1C(=O)O [Example 7, reference compound] | 1200 nM | 490 nM | 110 nM
CCN(CCN(C)C)C(=O)CNCc1cc(C(=O)O)ccn1 [Example 9] | 24 nM | 350 nM | 57 nM
Cc1cc(Cl)ccc1COc1ccnn1-c1cc(C(=O)O)ccn1 [Example 11] | 28 nM | 1000 nM | 110 nM
O=C(O)c1ccncc1Nc1nn(CCN2CCC(F)(F)CC2)c2ccc(F)cc12 [Example 13] | 21 nM | 1100 nM | 260 nM
N#CNC(=O)c1ccncc1Nc1nn(CCN2CCC(F)(F)CC2)c2ccc(F)cc12 [Example 14] | 29 nM |  | 3100 nM
CCN(CC)CCCCNCc1cc(C(=O)O)ccn1 [Example 18] | 11 nM | 390 nM | 350 nM
